Patent US20080027042A1, “Novel Aminopyridine Derivatives Having Aurora a Selective Inhibitory Action” (priority 2004, published 2008)
Where a name gives a salt, the structure may show the parent alone.

Experiments:
Aurora B = target: T1, Aurora B (Homo sapiens, UniProt Q96GD4); assay: Aurora B inhibitory action (33P-ATP kinase assay, Kemptide substrate); assay type: biochemical; conditions: 100 μM ATP, 30° C., 20 minutes
T1 construct: histidine tag (N); made in house; host or cells: Escherichia coli BL21-CodonPlus(DE3)-RIL
T1 sequence (Q96GD4 whole entry): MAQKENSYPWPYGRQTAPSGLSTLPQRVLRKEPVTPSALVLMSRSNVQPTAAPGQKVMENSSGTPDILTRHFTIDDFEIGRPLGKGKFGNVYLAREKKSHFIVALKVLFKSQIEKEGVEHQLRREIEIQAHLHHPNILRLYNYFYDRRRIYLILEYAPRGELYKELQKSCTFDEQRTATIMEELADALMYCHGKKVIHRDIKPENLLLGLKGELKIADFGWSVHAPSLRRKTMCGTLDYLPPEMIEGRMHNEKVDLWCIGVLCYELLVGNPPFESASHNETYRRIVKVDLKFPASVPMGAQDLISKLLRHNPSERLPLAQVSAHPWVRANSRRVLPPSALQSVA
From the text: Aurora B Inhibitory Action
(1) Purification of Aurora B
(§1) cDNA of Aurora B having histidine tag fused at the amino terminal was integrated into an expression vector, which was then highly expressed in Escherichia coli BL21-CodonPlus(DE3)-RIL cells. The Escherichia coli cells were recovered and solubilized, and then the histidine-tagged […] protein was adsorbed onto a nickel chelate column and eluted from the column with imidazole. The active fraction was desalted with a desalting column to give a pure enzyme.
(2) Measurement of Activity of Aurora B
For measurement of the activity of Aurora B, the substrate used was Kemptide (Lys-Arg-Arg-Ala-Ser-Lys-Gly) (SEQ.ED.NO.: 1), a synthetic peptide purchased from Sigma-Aldrich, Inc. [Certificate of analysis (Upstate, Inc.)].
Reaction was conducted by a partial modification of the method of activity measurement for Aurora A. The amount of the reaction liquid was 21.1 μL, and the composition of the reaction buffer (R2 buffer) was 50 mM Tris-hydrochloride buffer (pH 7.4)/15 mM magnesium acetate/0.2 mM ethylenediamine-N,N,N′,N′-tetraacetate (EDTA). To this, purified Aurora B, 100 μM of a substrate peptide, 100 μM of unlabeled adenosine triphosphate (ATP) and 1 μCi of [γ-^33P] labeled ATP (2,500 Ci/mmole or more) were added, and the mixture was reacted at 30° C. for 20 minutes. Then, 10 μL of 350 mM phosphate buffer was added to the reaction system to stop the reaction. The substrate peptide was adsorbed on a P81 paper filter 96-well plate and then washed with 130 mM phosphate buffer for several times. The radiation activity of the peptide was measured with a liquid scintillation counter. The [γ-^33P] labeled ATP was purchased from Amersham Biosciences Co., Ltd.
(§2) The compound to be tested was added to the reaction system such that a dilution series of the compound in dimethylsulfoxide was first prepared, and 1.1 μL of this solution was added. A control was provided by adding 1.1 μL of DMSO to the reaction system.

Aurora A = target: T2, Aurora A (Homo sapiens, UniProt O14965); assay: Aurora A inhibitory action (33P-ATP kinase assay, Kemptide substrate); assay type: biochemical; conditions: 20 μM ATP, 30° C., 20 minutes
T2 construct: histidine tag (N); made in house; host or cells: Escherichia coli BL21-CodonPlus(DE3)-RIL
T2 sequence (O14965 1-403): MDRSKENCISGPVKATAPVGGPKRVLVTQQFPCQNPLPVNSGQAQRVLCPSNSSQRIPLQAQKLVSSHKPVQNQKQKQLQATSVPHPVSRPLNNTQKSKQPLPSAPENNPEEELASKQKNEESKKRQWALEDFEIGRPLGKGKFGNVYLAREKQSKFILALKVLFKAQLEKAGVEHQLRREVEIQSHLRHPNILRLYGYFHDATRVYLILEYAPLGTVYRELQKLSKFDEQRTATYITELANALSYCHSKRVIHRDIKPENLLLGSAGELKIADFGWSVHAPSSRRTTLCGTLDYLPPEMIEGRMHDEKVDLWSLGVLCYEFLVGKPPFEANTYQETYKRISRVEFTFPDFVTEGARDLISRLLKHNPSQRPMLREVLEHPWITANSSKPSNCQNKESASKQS
From the text: Aurora A Inhibitory Action
(1) Purification of Aurora A
as §1, with “A” for “B”, “BL2 1-CodonPlus(DE3)-RIL” for “BL21-CodonPlus(DE3)-RIL”
(2) Measurement of Activity of Aurora A
For measurement of the activity of Aurora A, the substrate used was Kemptide (Lys-Arg-Arg-Ala-Ser-Lys-Gly) (SEQ.ID.NO.: 1), a synthetic peptide purchased from Sigma-Aldrich, Inc. [Certificate of analysis (Upstate, Inc.)].
Reaction was conducted by a partial modification of a method by Upstate, Inc. [Kinase Profiler™ Assay Protocols]. The amount of the reaction liquid was 21.1 μL, and the composition of the reaction buffer (R2 buffer) was 50 mM Tris-hydrochloride buffer (pH 7.4)/15 mM magnesium acetate/0.2 mM ethylenediamine-N,N,N′,N′-tetraacetate (EDTA). To this, purified Aurora A, 100 μM of a substrate peptide, 20 μM of unlabeled adenosine triphosphate (ATP) and 0.5 μCi of [γ-^33P] labeled ATP (2,500 Ci/mmole or more) were added, and the mixture was reacted at 30° C. for 20 minutes. Then, 10 μL of 350 mM phosphate buffer was added to the reaction system to stop the reaction. The substrate peptide was adsorbed on a P81 paper filter 96-well plate and then washed with 130 mM phosphate buffer for several times. The radiation activity of the peptide was measured with a liquid scintillation counter. The [γ-^33P] labeled ATP was purchased from Amersham Biosciences Co., Ltd.
as §2

Compound	IC50 (Aurora B)	IC50 (Aurora A)
O=C(O)c1cc(CN2CCN(C(=O)c3cccc(Cl)c3F)CC2)nc(Nc2nccs2)c1 [Example 83, 2-((4-(3-chloro-2-fluorobenzoyl)piperazin-1-yl)methyl)-6-(thiazol-2-ylamino)isonicotinic acid]	800 nM	0.64 nM
O=C(NCCO)c1cc(CN2CCN(C(=O)c3cccc(Cl)c3F)CC2)nc(Nc2nccs2)c1 [Example 88, 2-((4-(3-chloro-2-fluorobenzoyl)piperazin-1-yl)methyl)-N-(2-hydroxyethyl)-6-(thiazol-2-ylamino)isonicotinamide trifluoroacetate]	1000 nM	0.72 nM
O=C(c1cccc(Cl)c1F)N1CCCN(Cc2cccc(Nc3nccs3)n2)CC1 [Example 63, 6-((4-(3-chloro-2-fluorobenzoyl)-1,4-diazepan-1-yl)methyl)-N-thiazol-2-ylpyridin-2-amine]	570 nM	1.3 nM
O=C(c1cccc(Cl)c1Cl)N1CCN(Cc2cccc(Nc3ncc(Cl)s3)n2)CC1 [Example 76, 6-((4-(2,3-dichlorobenzoyl)piperazin-1-yl)methyl)-N-(5-chlorothiazol-2-yl)pyridin-2-amine]	47 nM	0.44 nM
O=C(c1cccc(C(F)(F)F)c1F)N1CCN(Cc2cncc(Nc3cc[nH]n3)n2)CC(O)C1 (stereo not shown) [Example 55, 6-((4-(2-fluoro-3-(trifluoromethyl)benzoyl)-6-hydroxy-1,4-diazepan-1-yl)methyl)-N-1H-pyrazol-3-ylpyrazin-2-arnine]	7400 nM	20 nM
CC(c1cccc(Nc2cc[nH]n2)n1)N1CCN(C(=O)c2cccc(Cl)c2F)CC1 (stereo not shown) [Example 24, 6-(1-(4-(3-chloro-2-fluorobenzoyl)piperazin-1-yl)ethyl)-N-1H-pyrazol-3-ylpyridin-2-amine]	26000 nM	23 nM
C[C@@H]1CN(Cc2cccc(Nc3ncns3)n2)CCN1C(=O)c1ccccc1 [Example 33, 6-(((3R)-4-benzoyl-3-methylpiperazin-1-yl)methyl)-N-1,2,4-thiadiazol-5-ylpyridin-2-amine trifluoroacetate]	3000 nM	50 nM
CC(=O)Nc1cccc(C(=O)N2CCN(Cc3cccc(Nc4ncc(Cl)s4)n3)CC2)c1 [Example 72, 6-((4-(3-(acetylamino)benzoyl)piperazin-1-yl)methyl)-N-(5-chlorothiazol-2-yl)pyridin-2-amine]	170 nM	27 nM
CS(=O)(=O)c1cccc(C(=O)N2CCN(Cc3cccc(Nc4ncc(Cl)s4)n3)CC2)c1 [Example 74, 6-((4-(3-(methanesulfonyl)benzoyl)piperazin-1-yl)methyl)-N-(5-chlorothiazol-2-yl)pyridin-2-amine]	850 nM	47 nM
CN1CCN(c2cc(CN3CCN(C(=O)c4cccc(Cl)c4F)CC3)nc(Nc3nccs3)c2)C1=O [Example 98, 3-(2-((4-(3-chloro-2-fluorobenzoyl)piperazin-1-yl)methyl)-6-(thiazol-2-ylamino)pyridin-4-yl)-3-methylimidazolidin-2-one]	230 nM	0.36 nM
6-((4-(3-(dimethylamino)benzoyl)piperazin-1-yl)methyl)-N-(5-chlorothiazol-2-yl)pyridin-2-amine [Example 73]	410 nM	17 nM
Cc1cc(Nc2cccc(CN3C[C@@H]4C[C@H]3CN4C(=O)c3cccc(Cl)c3F)n2)n[nH]1 [Example 27, 6-(((1S,4S)-5-(3-chloro-2-fluorobenzoyl)-2,5-diazabicyclo[2.2.1]hept-2-yl)methyl)-N-(5-methyl-1H-pyrazol-3-yl)pyridin-2-amine]	1700 nM	3.3 nM
O=C(c1cccc(C(F)(F)F)c1)N1CCN(Cc2cccc(Nc3ncns3)n2)CC1 [Example 37, 6-((4-(3-(trifluoromethyl)benzoyl)piperazin-1-yl)methyl)-N-1,2,4-thiadiazol-5-ylpyridin-2-amine]	8800 nM	4.9 nM
O=C(c1cccc(C(F)(F)F)c1F)N1CCN(Cc2cccc(Nc3nccs3)n2)CC1 [Example 13, 6-((4-(2-fluoro-3-(trifluoromethyl)benzoyl)piperazin-1-yl)methyl)-N-thiazol-2-ylpyridin-2-amine trifluoroacetate]	380 nM	0.89 nM
O=C(c1cccc(Cl)c1F)N1CCN(Cc2cc(N3CCOC3=O)cc(Nc3nccs3)n2)CC1 [Example 97, 3-(2-((4-(3-chloro-2-fluorobenzoyl)piperazin-1-yl)methyl)-6-(thiazol-2-ylamino)pyridin-4-yl)-1,3-oxazolidin-2-one]	830 nM	0.62 nM
Cc1noc(-c2cc(CN3CCN(C(=O)c4cccc(Cl)c4F)CC3)nc(Nc3nccs3)c2)n1 [Example 110, 6-((4-(3-chloro-2-fluorobenzoyl)piperazin-1-yl)methyl)-4-(3-methyl-1,2,4-oxadiazol-5-yl)-N-thiazol-2-ylpyridin-2-amine]	750 nM	0.59 nM
O=C(c1cnccn1)N1CCN(Cc2cccc(Nc3ncc(Cl)s3)n2)CC1 [Example 64, 6-((4-(pyrazin-2-ylcarbonyl)piperazin-1-yl)methyl)-N-(5-chlorothiazol-2-yl)pyridin-2-amine]	2500 nM	110 nM
O=C(c1cccc(F)c1F)N1CCN(Cc2cc(N3CCOCC3)cc(Nc3nccs3)n2)CC1 [Example 103, 6-((4-(2,3-difluorobenzoyl)piperazin-1-yl)methyl)-4-morpholin-4-yl-N-thiazol-2-ylpyridin-2-amine]	250 nM	0.76 nM
Cn1ccc(C(=O)N2CCN(Cc3cccc(Nc4ncc(Cl)s4)n3)CC2)n1 [Example 69, 6-((4-((1-methyl-1H-pyrazol-3-yl)carbonyl)piperazin-1-yl)methyl)-N-(5-chlorothiazol-2-yl)pyridin-2-amine]	920 nM	32 nM
O=C(c1cccc(Cl)c1Cl)N1CCN(Cc2cncc(Nc3cc[nH]n3)n2)CC1 [Example 45, 6-((4-(2,3-dichlorobenzoyl)piperazin-1-yl)methyl)-N-1H-pyrazol-3-ylpyrazin-2-amine]	4800 nM	2.5 nM
